Reference: article PMC3998017, “Single cell imaging of Bruton's Tyrosine Kinase using an irreversible inhibitor” (Scientific Reports, 2014)

Target: T1, Bruton's tyrosine kinase (BTK) (Homo sapiens, UniProt Q06187)
T1 construct: purified BTK (76 kDa)
Assay: IC50 on purified BTK enzyme; also covalent labelling of purified BTK and of BTK in Toledo cells by denaturing gel fluorescence, blocked by Ibrutinib
Format: biochemical

T1 sequence (Q06187 2-659): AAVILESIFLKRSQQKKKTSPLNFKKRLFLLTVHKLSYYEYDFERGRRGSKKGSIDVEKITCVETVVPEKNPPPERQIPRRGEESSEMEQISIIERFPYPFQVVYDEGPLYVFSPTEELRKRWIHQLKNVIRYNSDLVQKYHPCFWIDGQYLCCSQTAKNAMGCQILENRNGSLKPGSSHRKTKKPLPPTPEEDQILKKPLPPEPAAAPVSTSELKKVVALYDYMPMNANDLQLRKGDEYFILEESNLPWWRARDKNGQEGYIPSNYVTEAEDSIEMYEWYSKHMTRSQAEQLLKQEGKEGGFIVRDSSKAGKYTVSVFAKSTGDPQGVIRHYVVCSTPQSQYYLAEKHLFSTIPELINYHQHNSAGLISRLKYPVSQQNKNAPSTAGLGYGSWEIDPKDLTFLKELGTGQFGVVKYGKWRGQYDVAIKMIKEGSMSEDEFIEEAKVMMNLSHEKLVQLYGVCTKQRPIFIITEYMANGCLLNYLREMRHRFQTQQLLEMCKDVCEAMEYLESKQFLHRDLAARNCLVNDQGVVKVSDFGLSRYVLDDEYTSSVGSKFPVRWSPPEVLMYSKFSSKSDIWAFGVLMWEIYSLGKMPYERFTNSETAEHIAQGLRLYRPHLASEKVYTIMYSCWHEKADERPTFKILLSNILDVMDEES

## Cc1cc(C)n2c1C=C1C=CC(CCC(=O)NC/C=C/C(=O)N3CCC[C@@H](n4nc(-c5ccc(Oc6ccccc6)cc5)c5c(N)ncnc54)C3)=[N+]1[B-]2(F)F [compound 7, (R,E)-3-(3-((4-(3-(4-amino-3-(4-phenoxyphenyl)-1H-pyrazolo[3,4-d]pyrimidin-1-yl)piperidin-1-yl)-4-oxobut-2-en-1-yl)amino)-3-oxopropyl)-5,5-difluoro-7,9-dimethyl-5H-dipyrrolo[1,2-c:2′,1′-f][1,3,2]diazaborinin-4-ium-5-uide]
  IC50: ~0.2 µM
